In assay [1] the target is T1, α1A-AR(V185A, A189S, M292L) (Homo sapiens, UniProt P35348, V185A/A189S/M292L).
T1 construct: gene ADRA1A

Assay [2] concerns the target T2, α1B-AR(A204V, S208A, L314M) (Homo sapiens, UniProt P35368, A204V/L314M/S208A).
T2 construct: gene ADRA1B
T2 sequence (P35368 1-520 A204V/S208A/L314M): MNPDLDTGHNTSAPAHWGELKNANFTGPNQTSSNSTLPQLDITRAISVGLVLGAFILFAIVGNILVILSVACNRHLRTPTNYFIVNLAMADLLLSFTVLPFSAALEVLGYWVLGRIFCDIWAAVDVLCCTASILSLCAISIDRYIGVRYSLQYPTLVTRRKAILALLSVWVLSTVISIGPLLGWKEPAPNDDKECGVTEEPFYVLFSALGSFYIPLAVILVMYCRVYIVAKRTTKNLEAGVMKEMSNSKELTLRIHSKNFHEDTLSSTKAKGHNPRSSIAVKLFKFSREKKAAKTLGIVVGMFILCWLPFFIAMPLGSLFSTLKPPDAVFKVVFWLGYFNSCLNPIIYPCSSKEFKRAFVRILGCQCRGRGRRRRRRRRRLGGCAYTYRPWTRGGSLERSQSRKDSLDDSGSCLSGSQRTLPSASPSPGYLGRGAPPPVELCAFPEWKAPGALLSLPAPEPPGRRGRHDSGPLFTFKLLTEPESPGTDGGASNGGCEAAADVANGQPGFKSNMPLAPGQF
In words: Ca2+ imaging (GCaMP6f) in transfected HEK293T cells. The class given is cell-based.

The values below come from paper PMC10415349, “Structural basis of agonist specificity of α1A-adrenergic receptor” (Nature Communications, 2023).

T1 sequence (P35348 whole entry V185A/A189S/M292L): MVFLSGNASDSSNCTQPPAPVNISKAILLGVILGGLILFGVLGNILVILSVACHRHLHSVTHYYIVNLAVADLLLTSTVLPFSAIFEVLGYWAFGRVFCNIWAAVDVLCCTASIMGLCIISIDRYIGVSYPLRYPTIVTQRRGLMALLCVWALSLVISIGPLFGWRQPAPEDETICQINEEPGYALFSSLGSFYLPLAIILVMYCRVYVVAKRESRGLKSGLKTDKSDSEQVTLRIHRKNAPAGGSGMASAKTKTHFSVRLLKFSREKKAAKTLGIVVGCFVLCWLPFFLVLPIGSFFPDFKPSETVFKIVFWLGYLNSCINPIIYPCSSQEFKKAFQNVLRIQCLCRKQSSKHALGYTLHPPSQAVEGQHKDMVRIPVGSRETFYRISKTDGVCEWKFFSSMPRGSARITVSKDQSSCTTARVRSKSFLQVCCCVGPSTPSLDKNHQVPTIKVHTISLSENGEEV

Regarding `CNC[C@H](O)c1ccc(O)c(O)c1` [epinephrine], the “Ca2+ imaging (GCaMP6f) in transfected HEK293T cells, saturating concentration” value in assay [1] is listed as “This triple mutant was still functional in response to epinephrine”.
Take `CS(=O)(=O)Nc1c(O)ccc2c1CCCC2C1=NCCN1` (centres unmarked) [A61603]: the concentration for a half-maximal effect (EC50) in assay [2] is roughly 10 nM.
